From paper PMC3615092, “Identification, Design and Bio-Evaluation of Novel Hsp90 Inhibitors by Ligand-Based Virtual Screening” (PLoS ONE, 2013)
Each block holds one molecule with its values, some of them ahead of it.

How the values were obtained:
Hsp70 = molecular target: T1, Hsp70 (Homo sapiens, UniProt P0DMV8); test: Hsp70 ATPase activity assay (ADP Hunter Plus); assay type: biochemical; conditions: for IC50: ADP Hunter Plus assay; for selectivity HSP90 over HSP70: ratio of IC50 HSP70 / HSP90, ADP fluorescence assay
T1 construct: purchased Enzo Life science ALX-201-214-C025
T1 sequence (P0DMV8 whole entry): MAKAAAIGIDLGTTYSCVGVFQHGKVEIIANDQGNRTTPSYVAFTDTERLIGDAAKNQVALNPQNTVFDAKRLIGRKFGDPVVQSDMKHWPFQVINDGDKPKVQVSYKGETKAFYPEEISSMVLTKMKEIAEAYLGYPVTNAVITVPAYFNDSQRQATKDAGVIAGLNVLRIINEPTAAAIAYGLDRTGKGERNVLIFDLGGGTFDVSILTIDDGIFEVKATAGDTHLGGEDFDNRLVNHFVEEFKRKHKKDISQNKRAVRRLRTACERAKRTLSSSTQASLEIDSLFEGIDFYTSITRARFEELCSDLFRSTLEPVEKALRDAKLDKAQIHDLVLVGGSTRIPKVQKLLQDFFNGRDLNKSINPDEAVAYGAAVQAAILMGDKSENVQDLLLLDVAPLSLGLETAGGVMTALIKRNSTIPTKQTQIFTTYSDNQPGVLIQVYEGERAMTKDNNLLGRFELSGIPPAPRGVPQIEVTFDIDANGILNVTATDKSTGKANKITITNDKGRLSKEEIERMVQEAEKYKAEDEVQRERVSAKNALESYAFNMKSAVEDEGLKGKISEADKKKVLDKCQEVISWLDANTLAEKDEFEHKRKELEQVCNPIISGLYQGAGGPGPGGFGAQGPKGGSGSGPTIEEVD
Description: The following materials were used for the biological evaluation: The PET-28a HSP90 expression vector was constructed. The Ni^2+-nitrilo-triacetic acid (NTA) agarose was purchased from General Electric (USA). […] Isopropyl-1-thio-d-galactopyranoside (IPTG) was purchased from Sigma (St. Lousi. MO). Antibodies of β-Actin, Hsp70, Hsp90, c-Raf, Akt, Src, Phospho-Src, ERK and Her-2 were purchased from Cell Signaling Technology (Danvers, MA). Anti-p-Akt(S473) was purchased from Signalway Antibody (Baltimore, MD). HIF-1α antibody was purchased from R&D systems. The stock solution of Hsp90 was prepared in a 20 mM Tris-Cl buffer with a pH 7.4, and concentration was fixed at 5.0 μM. […] The screened out compounds were purchased from SPECS and dissolved in DMSO (Sigma, St. Louis, MO) to make a final concentration of 10^−2 mol/L and were stored at −20°C. […] The water used in the experiments was thrice-distilled and all other materials were of analytical reagent grade.
Hsp70 ATPase activity was measured using Discover RX ADP Hunter^TM Plus Assay kit assay as descripted in the manufacturer's instructions. Breifly, Hsp70 (3 μM) was incubated with 1 mM ATP in 100 mM Tris pH 7.4 at 37°C for 3 h in the presence or absence of various concentrations of test compounds. ADP generation was measured using Varioskan multimode microplate spectrophotometer (540 nm excitation and 620 nm emission). Fluorescence intensity values measured for Hsp70 without any testing compound was assumed as 100% of enzyme activity. The background reaction rate was measured in a reaction lacking enzyme or substrate and subtracted from the experimental rates.

Hsp90 [1] = molecular target: T2, Hsp90 (Homo sapiens, UniProt P07900); test: ATP hydrolysis inhibition, ADP Hunter Plus (ADP fluorescence) assay; assay type: biochemical; conditions: by ADP fluorescence assay
T2 construct: The region encoding full-length Hsp90 was subcloned into pET28a; inferred from the pET28a vector and Ni-NTA purification; made in house; host or cells: E. coli
Experimental: The first and last rows of the 96-well plate contained the appropriate concentration of DMSO were used as blank control. ATP was dissolved in the assay buffer to give a stock concentration of 2.5 mM and stored at room temperature. A 10 μL aliquot of ATP solution was added to each well to give a final assay concentration of 1 mM. Before the usage, Hsp90 protein was thawed on ice and suspended in chilled assay buffer to a stock concentration of 0.45 mg/mL, and the solution was kept on ice. […] The plates were shaken for approximately 2 min and incubated for 3 h at 37°C. The Discover RX ADP Hunter^TM Plus Assay kit (Discoverx, Fremont, CA) was used following the manufacturer's instructions. ATPase reactions were carried out after 3 h at 37°C temperature in presence of different concentrations of compounds. ADP generation was measured using Varioskan multimode microplate spectrophotometer (540 nm excitation and 620 nm emission). […] The background reaction rate was measured in a reaction lacking enzyme or substrate and subtracted from the experimental rates.

Hsp90 [2] = molecular target: T2, Hsp90; test: Malachite green assay of Hsp90 ATPase activity; assay type: biochemical; conditions: for IC50: by malachite green assay; for inhibition at 40 µM: read-out: Inhibition rate (% in 40 μM)
Experimental: The region encoding full-length Hsp90 was subcloned into pET28a. Protein expression in E. coli cells were induced with 0.5 mM IPTG. Cells were harvested after 20h of growth at 16°C and then disrupted by sonication. The soluble lysate was clarified by centrifugation and applied to a Ni^2+-nitrilo-triacetic acid (NTA) agarose column in a buffer (50 mM Tris-Cl, 300 mM NaCl, 10 mM Imidazole, 10% [v/v] Glycerol, 10 mM PMSF, 10 mM DTT). Hsp90 Protein was eluted with a linear gradient of 20–1000 mM imidazole. Hsp90 was identified by SDS-PAGE, and the high concentrated fraction was dialyzed against ATPase buffer (20 mM Tris-Cl, pH 7.5; 6 mM MgCl2; 20 mM KCl) and then aliquoted, frozen in liquid nitrogen, stored at −80°C.
The test compounds were diluted from mother plates (10 mM in 100% (v/v) DMSO) into daughter plates (200 μM in 2.0% (v/v) DMSO); 5 μL of test compound solution was added to each well (equivalent to a final concentration of 40 μM) of the 96-well assay plate. The first and last rows of the 96-well plate contained the appropriate concentration of DMSO were used as blank control. ATP was dissolved in the assay buffer to give a stock concentration of 2.5 mM and stored at room temperature. A 10 μL aliquot of ATP solution was added to each well to give a final assay concentration of 1 mM. Before the usage, Hsp90 protein was thawed on ice and suspended in chilled assay buffer to a stock concentration of 0.45 mg/mL, and the solution was kept on ice. The incubation was started by adding 10 μL of the stock Hsp90 to each well (except for the background wells which received 10 μL of assay buffer), giving a final assay volume of 25 μL. The plates were shaken for approximately 2 min and incubated for 3 h at 37°C.
The assay procedures were based on the literatures [33]–[35]. […] The reagent is initially dark brown, but on standing for ∼2 h at room temperature changes to a golden yellow and is ready for use. The assay buffer was 100 mM Tris–HCl, 20 mM KCl, 6 mM MgCl2, pH 7.4.
To stop the ATPase reactions, 80 μL of the malachite green reagent was added to each well.

SK-BR-3 = test: Anti-proliferation MTT assay; assay type: cell-based
Experimental: (§1) Cell viabilities were measured by a colorimetric assay using 3-(4, 5-dimethylthiaz-ol-2-yl)-2,5-diphenyltetrazoliumbromide (MTT, Sigma, Ltd.) as described previously. Experiments were carried out in triplicate in a parallel manner for each concentration of target compounds and the results were presented as mean ± SE. Control cells were given only culture media. After incubation for 48 h, absorbance (A) was measured at 570 nm. Survival ratio (%) was calculated using the following equation: survival ratio (%) = (Atreatment/Acontrol) × 100%.

MDA-MB-231 = test: Anti-proliferation MTT assay; assay type: cell-based
Experimental: as §1

HepG2 = test: Anti-proliferation MTT assay; assay type: cell-based
Experimental: as §1

MCF-7 = test: Anti-proliferation MTT assay; assay type: cell-based
Experimental: as §1

HCT116 = test: Anti-proliferation MTT assay; assay type: cell-based
Experimental: as §1

A549 = test: Anti-proliferation MTT assay; assay type: cell-based
Experimental: as §1

[3] = 40 μM, colorimetric assay for inorganic phosphate
[4] = colorimetric assay for inorganic phosphate, 40 μM

IC50 (Hsp70): 16.3 ± 1.2 µM | selectivity HSP90 over HSP70 (Hsp70): over 47 times | IC50 (Hsp90 [1]): 0.34 ± 0.08 µM | IC50 (Hsp90 [2]): 0.37 ± 0.05 µM
Structure (SMILES): CC(C)c1cc(C(=O)N2Cc3ccc(CN4CCN(C)CC4)cc3C2)c(O)cc1O [AT13387]

Structure (SMILES): CO[C@H]1/C=C\C=C(/C)C(=O)NC2=CC(=O)C(NCCN(C)C)=C(C[C@@H](C)C[C@H](OC)[C@H](O)[C@@H](C)/C=C(\C)[C@@H]1OC(N)=O)C2=O [Compound 17-DMAG, 17-Dimethylamino-ethylamino-17-demethoxygeldanamycin]
IC50 (SK-BR-3; 48 h): 1.21 µM | IC50 (MDA-MB-231; 48 h): 0.048 µM | IC50 (HepG2; 48 h): 0.49 µM | IC50 (MCF-7; 48 h): 0.037 µM | IC50 (HCT116; 48 h): 0.26 µM | IC50 (A549; 48 h): 0.057 µM | Inhibition rate (% in 40 μM) (Hsp90 [2]; [3]): 90%

Structure (SMILES): CN(C)S(=O)(=O)N1CCN(CC(O)COc2ccc3cc(Br)ccc3c2)CC1 (stereo not drawn) [Compound S1]
IC50 (SK-BR-3; Homo sapiens, SK-BR-3, 48 h): 15.8 µM | IC50 (MDA-MB-231; Homo sapiens, MDA-MB-231, 48 h): 2.27 µM | IC50 (HepG2; Homo sapiens, HepG2, 48 h): 2.27 µM | IC50 (MCF-7; Homo sapiens, MCF7, 48 h): 3.79 µM | IC50 (HCT116; Homo sapiens, HCT-116, 48 h): 4.66 µM | IC50 (A549; Homo sapiens, A549, 48 h): 25.9 µM | IC50 (Hsp70): 28.2 ± 2.27 µM | selectivity HSP90 over HSP70 (Hsp70): over 15 times | IC50 (Hsp90 [1]): 1.61 µM | inhibition at 40 µM (Hsp90 [2]; [3]): > 50% | IC50 (Hsp90 [2]): 2.44 ± 0.33 µM

inhibition at 40 µM (Hsp90 [2]; [3]): -11.6%
Structure (SMILES): COc1ccc(CNC(=O)CSc2nc3ccc(N)cc3s2)cc1 [Compound S3]

inhibition at 40 µM (Hsp90 [2]; [3]): 48.2% | Hsp90 inhibition activity (in words) (Hsp90 [2]; [4]): moderate
Structure (SMILES): COCCCN1C(=O)C(O)=C(C(=O)c2ccc(OC(C)C)c(C)c2)C1c1cccnc1 (stereo not drawn) [Compound S4]

inhibition at 40 µM (Hsp90 [2]; [3]): -14.5%
Structure (SMILES): CCCOc1ccc(C(=O)C2=C(O)C(=O)N(Cc3cccnc3)C2c2ccccc2)cc1 (stereo not drawn) [Compound S5]

inhibition at 40 µM (Hsp90 [2]; [3]): -7.53%
Structure (SMILES): CCCCCOc1cccc(C2C(C(=O)c3cccs3)=C(O)C(=O)N2CCN2CCOCC2)c1 (stereo not drawn) [Compound S6]

inhibition at 40 µM (Hsp90 [2]; [3]): -35.1%
Structure (SMILES): O=C(NNC1CC(=O)N(c2ccc(Br)cc2)C1=O)c1cccnc1 (stereo not drawn) [Compound S7]

inhibition at 40 µM (Hsp90 [2]; [3]): -47.8%
Structure (SMILES): COc1ccc(-c2csc3ncn(CC(=O)Nc4ccc(C)cc4C)c(=O)c23)cc1OC [Compound S9]

inhibition at 40 µM (Hsp90 [2]; [3]): 36%
Structure (SMILES): CCOc1ccc(-c2csc3ncn(CC(=O)Nc4cc(C)ccc4C)c(=O)c23)cc1 [Compound S10]

inhibition at 40 µM (Hsp90 [2]; [3]): 42.8% | Hsp90 inhibition activity (in words) (Hsp90 [2]; [4]): moderate
Structure (SMILES): COc1ccc(-c2csc3ncn(CC(=O)NC4CCCCC4)c(=O)c23)cc1OC [Compound S11]

inhibition at 40 µM (Hsp90 [2]; [3]): 12.6%
Structure (SMILES): CCOC(=O)C1=C(Nc2ccc(OC)cc2)S/C(=C\c2ccc[nH]2)C1=O [Compound S12]

inhibition at 40 µM (Hsp90 [2]; [3]): 47.5% | Hsp90 inhibition activity (in words) (Hsp90 [2]; [4]): moderate
Structure (SMILES): Cc1ccc(S(=O)(=O)N2CCN(CC(O)COc3ccc(-c4ccccc4)cc3)CC2)cc1C (stereo not drawn) [Compound S14]

inhibition at 40 µM (Hsp90 [2]; [3]): 18.9%
Structure (SMILES): Cc1cccc(OCCn2c(SCC(O)CO)nc3ccccc32)c1 (stereo not drawn) [Compound S15]

inhibition at 40 µM (Hsp90 [2]; [3]): -6.22%
Structure (SMILES): COc1cccc(CNc2nc(SC)ncc2CO)c1 [Compound S16]

inhibition at 40 µM (Hsp90 [2]; [3]): 48.8% | Hsp90 inhibition activity (in words) (Hsp90 [2]; [4]): moderate
Structure (SMILES): COCCN1C(=O)C(O)=C(C(=O)c2ccc3c(c2)CC(C)O3)C1c1cccc(OC)c1 (stereo not drawn) [Compound S17]
